Data set [1] has as its system subjects. The data set can be described thus: Phase 1-3 clinical development, tolerability. The class given is in vivo, human.
Data set [2] concerns Phase 2b/3 pooled population. The data set is described as follows: Pooled analysis of cardiovascular events and death in the Phase 2b/3 clinical studies. The class given is in vivo, human. As to conditions: for CEC-CV death/MI/stroke: CEC-adjudicated; for All MI / All stroke: fatal and/or non-fatal. The procedure: The mortality and adverse CV event data shown in the Tables and Figures herein were analyzed from the Phase 2b and Phase 3 studies (Phase 2b/3).
Mortality incidences caused by stroke, heart attack, heart failure, or blood vessel problems not associated with the heart or brain, were defined as CV death. Death by any means, including CV death, was defined as All-cause Mortality or All-cause death.
Acute CV events, as defined herein, includes all cardiovascular disorders associated with Phase 2b/3 subjects that were diagnosed by a medical physician during the studies as acute and clinically significant including MACE events and also procedures (for example, cardiac bypass surgery) and severe ischemic event such as unstable angina. Primary MACE means non-fatal myocardial infarction (MI), non-fatal stroke, and CV death. Secondary MACE accounts for All-cause deaths (death by any means) in addition to non-fatal MI, non-fatal stroke, and CV death.
First, two physicians at the Clinical Event Center (CEC) of the Duke Clinical Research Institute (Durham, N.C.) served as consultants to the sponsor and performed a retrospective treatment-blinded independent adjudication of all identified potential CV events. […] Adjudication was based on definitions typical for such review and prespecified by the reviewers.

Data set [3] deals with non-diabetic rats. The data set can be described thus: Two year survival of non-diabetic rats (FIGS. 7-8). The class given is in vivo, rat. As to conditions: 25 mg/kg/day, two years. The source says: (§1) In these studies, approximately sixty animals of each gender were exposed to saxagliptin or two cohorts of placebo over two years, the approximate lifetime of a rodent. […] The differences in survival time between male and female rodents are not currently explained. A possible explanation for the rat results is that the dose taken by male rats, 45 times the human equivalent dose, was closer to the human experience than the same dose taken by female rats, 112 times the human equivalent dose, and therefore the male experience may be more relevant.

The subject of data set [4] is non-diabetic mice. The data set can be described thus: Two year survival of non-diabetic mice (FIGS. 9-10). In kind it is in vivo, mouse. As to conditions: 50 mg/kg/day, two years.
Source text: as §1

Data set [5] concerns subjects of pooled studies. The data set is described as follows: Ischemic serious adverse events (heart or brain related) in pooled studies, Fischer Exact Test analysis (FIG. 12). In kind it is in vivo, human. As to conditions: FIG. 12, per 100 comparator.
For data set [6], the system named is subjects administered sitagliptin or metformin. The data set can be described thus: Health insurance data analysis of heart attack, sitagliptin relative to metformin (FIG. 13). In kind it is in vivo, human. As to conditions: propensity adjusted, 27,424 sitagliptin vs 80,462 metformin subjects.
Setting [7] is: All Saxa (2.5, 5, 10, 20, 40, 100 mg/d), N = 3356.
Where [8] appears, read: CEC adjudication, all saxagliptin.

The record followed here is US20100256153A1, “METHODS FOR PREVENTING OR REDUCING RISK OF MORTALITY” (priority 2009, published 2010).

As for `N#C[C@@H]1C[C@@H]2C[C@@H]2N1C(=O)[C@@H](N)C12CC3CC(CC(O)(C3)C1)C2` [saxagliptin, (1S,3S,5S)-2-[(2S)-2-amino-2-(3-hydroxyadamantan-1-yl)acetyl]-2-azabicyclo[3.1.0]hexane-3-carbonitrile], the “adverse CV effects related to blood pressure or heart rate” value in data set [1] (Phase 1-3 studies overall) is given as “did not lead to adverse CV effects”. Also, in data set [1] (maximum oral daily doses 400 mg up to 2 weeks, 100 mg up to 6 weeks, 40 and 20 mg up to 12 weeks, 2.5, 5, 10 mg up to 2 years), the tolerability result is reported as “well tolerated”. Moreover, in data set [2] (ALL SAXA group), the “subjects having a Primary MACE (CV death/MI/stroke)” value is recorded as 0.7%. Besides, in data set [2] (setting [7]), the “Inv-CV death/MI/stroke” value is 23 (0.7) n (%) and the “CEC-CV death/MI/stroke” value is on record as 22 (0.7) n (%). Further, in data set [2] (All Saxa, N = 3356), the All death is on record as 10 (0.3) n (%), the “Other CV death” value is 4 (0.1) n (%), the “All MI” value was 8 (0.2) n (%) and the All stroke is recorded as 11 (0.3) n (%). In data set [2] (setting [8]), the “All Stroke (fatal and non-fatal), proportion of subjects with events” value is recorded as 0.3%; the “Other CV death, proportion of subjects with events” value is reported as 0.1%; the “all MI, proportion of subjects with events” value stood at 0.2%. Also, in data set [2] (Phase 2/3 Pooled Population), the “Acute CV Events, Incidence rate ± SE” value is listed as 10.7 ± 1.8 events/1000 patient-years; the “Primary MACE, Incidence rate ± SE” value is 6.2 ± 1.3 events/1000 patient-years; the “Secondary MACE, Incidence rate ± SE” value is listed as 7.0 ± 1.4 events/1000 patient-years. In addition, in data set [2] (Saxa 2.5 mg, N = 937), the All death is listed as 3 (0.3) n (%), the “Inv-CV death/MI/stroke” value is on record as 6 (0.6) n (%), the “Other CV death” value was 0 n (%) and the “CEC-CV death/MI/stroke” value was 6 (0.6) n (%). In data set [2] (Saxa 2.5 mg, N = 937), the “All MI” value is given as 2 (0.2) n (%) and the All stroke was 4 (0.4) n (%). Besides, in data set [2] (Saxa 5 mg, N = 1269), the All death was 3 (0.2) n (%), the “Inv-CV death/MI/stroke” value is on record as 6 (0.5) n (%), the “Other CV death” value is reported as 0 n (%) and the “CEC-CV death/MI/stroke” value is recorded as 7 (0.6) n (%). In data set [2] (Saxa 5 mg, N = 1269), the “All MI” value is reported as 4 (0.3) n (%) and the All stroke was 4 (0.3) n (%). Besides, in data set [2] (Saxa 10 mg, N = 1000), the All death is recorded as 4 (0.4) n (%), the “Inv-CV death/MI/stroke” value is 11 (1.1) n (%), the “Other CV death” value was 4 (0.4) n (%) and the “CEC-CV death/MI/stroke” value was 9 (0.9) n (%). Also, in data set [2] (Saxa 10 mg, N = 1000), the “All MI” value is recorded as 2 (0.2) n (%) and the All stroke is listed as 3 (0.3) n (%). Also, in data set [2] (all saxagliptin), the “Proportion of subjects with SAE CHF events” value turned out to be 0.2%. The “overall frequency of CV deaths” value in data set [2] (all subjects treated with saxagliptin (7/3356)) is 0.2%. Moreover, the “all cause mortality (death by any means), frequency” value in data set [2] (all subjects treated with saxagliptin (10/3356)) is on record as 0.3%. For the same compound, the “incidence of MACE events in higher risk subgroups versus control” value in data set [2] (at least one or two CV risk factors in addition to T2DM, history of hypertension or hypercholesterolemia, males, FIGS. 3, 4) is “lowered incidence MACE events”. Moreover, the “MACE events incidence rate” value in data set [2] (subjects with a history of CV disease, FIG. 3) was 9.2 MACE events per 1000 patient-years. Further, the “fatal CHF events” value in data set [2] (two fatal events in total, both on comparator) is recorded as “none”. Further, the survival versus placebo entry in data set [3] (female rats, FIG. 8) is “intermediate between the two placebo cohorts”. For the same compound, the survival versus placebo result in data set [3] (male rats, FIG. 7) is listed as “reduced risk of mortality or longer survival times”. In addition, the survival versus placebo entry in data set [4] (female mice, FIG. 9) is “reduced risk of mortality”. In addition, the survival versus placebo result in data set [4] (male mice, FIG. 10) is reported as “intermediate between the two placebo cohorts”. In addition, in data set [5], the “ischemic SAEs (heart attack or stroke-like events causing death, hospitalization, or near hospitalization), subjects on drug when 100 subjects on comparator had events” value was 57 subjects.
Consider `N[C@@H](CC(=O)N1CCn2c(nnc2C(F)(F)F)C1)Cc1cc(F)c(F)cc1F` [sitagliptin], for which the “heart attack, subjects on sitagliptin in the time 100 subjects have a heart attack on metformin” value in data set [6] is 65 subjects.
For the compound `N#C[C@@H]1CCCN1C(=O)CNC12CC3CC(CC(O)(C3)C1)C2` [vildagliptin, reference compound], the “ischemic SAEs (heart attack or stroke-like events causing death, hospitalization, or near hospitalization), subjects on drug when 100 subjects on comparator had events” value in data set [5] is given as 70 subjects.
